The test system of this experiment is bacteria. The experiment in a line: MIC determination, positive control (strain not stated). The note with it: 24 h.

Values after ≈ are worked out from the molar mass of the structure shown.

Usually MIC stands for the smallest concentration in the dilution series that meets the test's criterion for growth inhibition.

With `CN[C@H](CC(C)C)C(=O)N[C@H]1C(=O)N[C@@H](CC(N)=O)C(=O)N[C@H]2C(=O)N[C@H]3C(=O)N[C@H](C(=O)N[C@H](C(=O)O)c4cc(O)cc(O)c4-c4cc3ccc4O)[C@H](O)c3ccc(c(Cl)c3)Oc3cc2cc(c3O[C@@H]2O[C@H](CO)[C@@H](O)[C@H](O)[C@H]2O[C@H]2C[C@](C)(N)[C@H](O)[C@H](C)O2)Oc2ccc(cc2Cl)[C@H]1O` [vancomycin], the MIC stood at 1 µg/mL (≈ 0.69 µM).
